The target in the experiment is T1, human Gcn5L2 (hsGcn5L2) (Homo sapiens, UniProt Q92830).
T1 construct: gene KAT2A; catalytic domain, amino acids 497–662
In words: X-ray crystal structure ([…] Å); Ki from enzyme-coupled acetylation assay on purified catalytic domain. Format: biochemical.

T1 sequence (Q92830 497-662): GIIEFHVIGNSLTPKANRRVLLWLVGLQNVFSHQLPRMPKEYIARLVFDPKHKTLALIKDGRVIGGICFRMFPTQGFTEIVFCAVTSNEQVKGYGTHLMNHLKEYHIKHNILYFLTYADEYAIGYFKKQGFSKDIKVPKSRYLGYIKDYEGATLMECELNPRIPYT

In the case of `CCCC(=O)SCCNC(=O)CCNC(=O)[C@H](O)C(C)(C)COP(=O)(O)OP(=O)(O)OC[C@H]1O[C@@H](n2cnc3c(N)ncnc32)[C@H](O)[C@@H]1OP(=O)(O)O` [butyryl-CoA], the affinity, expressed as Ki, was 5.6 ± 0.7 µM.

For the origin of these results see PMC4932917, “Structural basis for acyl-group discrimination by human Gcn5L2” (Acta Crystallographica. Section D, Structural Biology, 2016).
